Where a name gives a salt, the structure may show the parent alone. Read-outs that look alike come from different tables or passages of the source.
How the values were obtained:
human GlyT1c = human GlyT1c (Homo sapiens (Human), UniProt P48067); assay: [3H]-Glycine uptake into recombinant CHO cells expressing human GlyT1; type: cell-based
Description: 1. [^3H]-Glycine uptake into recombinant CHO cells expressing human GlyT1: Human GlyT1c expressing recombinant hGlyT1c—5_CHO cells were plated at 20,000 cells per well in 96 well Cytostar-T scintillation microplates (Amersham Biosciences) and cultured to sub-confluency for 24 h. […] 80 μl HBSS buffer were added, followed by 10 μl inhibitor or vehicle (10% DMSO) and 10 μl [^3H]-glycine (TRK71, Amersham Biosciences) to a final concentration of 200 nM for initiation of glycine uptake. The plates were placed in a Wallac Microbeta (PerkinElmer) and continuously counted by solid phase scintillation spectrometry during up to 3 hours. Nonspecific uptake was determined in the presence of 10 μM Org24598.

human GlyT1c transporter = human GlyT1c transporter (Homo sapiens (Human), UniProt P48067); assay: Radioligand binding assay using recombinant CHO cell membranes expressing human GlyT1; details: read-out: radioligand binding Kiapp
Description: 2. Radioligand binding assays using recombinant CHO cell membranes expressing human GlyT1: […]

[1] = hGlyT1c_5_CHO cells, 200 nM [3H]-glycine
[2] = human GlyT1c-expressing CHO cell membranes

human GlyT1c transporter, sequence (P48067 whole entry): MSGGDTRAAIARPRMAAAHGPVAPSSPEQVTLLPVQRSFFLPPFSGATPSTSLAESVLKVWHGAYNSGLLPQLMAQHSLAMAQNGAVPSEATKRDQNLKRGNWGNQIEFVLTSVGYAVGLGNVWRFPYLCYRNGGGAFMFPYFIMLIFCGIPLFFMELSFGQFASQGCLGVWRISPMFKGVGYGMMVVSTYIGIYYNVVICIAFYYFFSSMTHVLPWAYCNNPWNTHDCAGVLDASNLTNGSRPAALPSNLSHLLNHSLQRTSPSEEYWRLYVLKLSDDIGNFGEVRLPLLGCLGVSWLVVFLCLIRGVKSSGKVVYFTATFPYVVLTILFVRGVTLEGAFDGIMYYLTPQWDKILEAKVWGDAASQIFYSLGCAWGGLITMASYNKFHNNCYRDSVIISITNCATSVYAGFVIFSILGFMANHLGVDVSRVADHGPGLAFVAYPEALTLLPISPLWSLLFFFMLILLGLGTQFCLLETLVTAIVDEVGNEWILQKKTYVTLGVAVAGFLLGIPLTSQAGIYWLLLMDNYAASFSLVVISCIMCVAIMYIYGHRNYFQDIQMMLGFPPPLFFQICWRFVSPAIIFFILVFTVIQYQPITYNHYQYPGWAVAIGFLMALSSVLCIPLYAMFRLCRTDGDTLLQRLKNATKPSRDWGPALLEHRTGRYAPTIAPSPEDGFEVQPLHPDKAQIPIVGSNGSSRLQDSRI
human GlyT1c, sequence (P48067 whole entry): as above

Row | Compound | IC50 (human GlyT1c; [1]) [µM] | Ki (human GlyT1c transporter; [2]) [µM] | IC50 (human GlyT1c) [µM] | Ki (human GlyT1c transporter) [µM]
1 | CCCS(=O)(=O)N(C)CCOc1ccc2c(c1)C(Cc1ccc(Cl)cc1)C(N)CC2 (centres unmarked) [Example 77, Propane-1-sulfonic acid {2-[7-amino-8-(4-chloro-benzyl)-5,6,7,8-tetrahydro-naphthalen-2-yloxy]-ethyl}-methyl-amide hydrochloride] | ≤ 1 | ≤ 0.1 |  | 
2 | N#Cc1ccc2c(c1)C(Cc1ccc(Cl)c(Cl)c1)C(N)CC2 (centres unmarked) [Example 29, 7-Amino-8-(3,4-dichlorobenzyl)-5,6,7,8-tetrahydronaphthalene-2-carbonitrile trifluoroacetate] | ≤ 100 | ≤ 10 |  | 
3 | CCOC(=O)NC1CCc2ccc(OCCNS(=O)(=O)c3ccc(C)s3)cc2C1Cc1cccc(Cl)c1 (centres unmarked) [Example 53, {1-(3-Chloro-benzyl)-7-[2-(5-methyl-thiophene-2-sulfonylamino)-ethoxy]-1,2,3,4-tetrahydro-naphthalen-2-yl}-carbamic acid ethyl ester] | ≤ 1000 | ≤ 10 |  | 
4 | NC1CCc2ccc(OCCNS(=O)(=O)c3cccnc3)cc2C1Cc1ccc(Cl)c(Cl)c1 (centres unmarked) [Example 5, Pyridine-3-sulfonic acid {2-[7-amino-8-(3,4-dichloro-benzyl)-5,6,7,8-tetrahydro-naphthalen-2-yloxy]-ethyl}-amide hydrochloride] | ≤ 1 | ≤ 1 |  | 
5 | CCOC(=O)NC1CCc2ccc(OCCNS(=O)(=O)c3ccc(Cl)s3)cc2C1Cc1cccc(Cl)c1 (centres unmarked) [Example 51, {1-(3-Chloro-benzyl)-7-[2-(5-chloro-thiophene-2-sulfonylamino)-ethoxy]-1,2,3,4-tetrahydronaphthalen-2-yl}-carbamic acid ethyl ester] | ≤ 1000 | ≤ 100 |  | 
6 | CCOC(=O)NC1CCc2ccc(OCCNS(=O)(=O)c3cnn(C)c3)cc2C1Cc1cccc(Cl)c1 (centres unmarked) [Example 46, {1-(3-Chloro-benzyl)-7-[2-(1-methyl-1H-pyrazole-4-sulfonylamino)-ethoxy]-1,2,3,4-tetrahydro-naphthalen-2-yl}-carbamic acid ethyl ester] | ≤ 1 | ≤ 1 |  | 
7 | CCOC(=O)NC1CCc2ccc(OCCNC(=O)OC(C)(C)C)cc2C1Cc1ccc(Cl)c(Cl)c1 (centres unmarked) [Example 1, [7-(2-tert-Butoxycarbonylamino-ethoxy)-1-(3,4-dichloro-benzyl)-1,2,3,4-tetrahydro-naphthalen-2-yl]-carbamic acid ethyl ester] | ≤ 1000 | ≤ 10 |  | 
8 | NC1CCc2ccc(OCCNS(=O)(=O)C3CCNC3)cc2C1Cc1ccc(Cl)c(Cl)c1 (centres unmarked) [Example 19, Pyrrolidine-3-sulfonic acid {2-[7-amino-8-(3,4-dichloro-benzyl)-5,6,7,8-tetrahydronaphthalen-2-yloxy]-ethyl}-amide hydrochloride] | ≤ 100 | ≤ 10 |  | 
9 | CN(C)S(=O)(=O)NCCOc1ccc2c(c1)C(Cc1ccc(Cl)c(Cl)c1)C(N)CC2 (centres unmarked) [Example 25, N′-(2-{[7-amino-8-(3,4-dichlorobenzyl)-5,6,7,8-tetrahydronaphthalen-2-yl]oxy}ethyl)-N,N-dimethylsulfuric diamide hydrochloride] | ≤ 1 | ≤ 0.1 |  | 
10 | CCOC(=O)NC1CCc2ccc(OCCNS(=O)(=O)c3cccs3)cc2C1Cc1ccc(Cl)c(Cl)c1 (centres unmarked) [Example 14, {1-(3,4-Dichloro-benzyl)-7-[2-(thiophene-2-sulfonylamino)-ethoxy]-1,2,3,4-tetrahydronaphthalen-2-yl}-carbamic acid ethyl ester] | ≤ 1000 | ≤ 100 |  | 
11 | CCOC(=O)NC1CCc2ccc(OCCNS(C)(=O)=O)cc2C1Cc1ccc(Cl)c(Cl)c1 (centres unmarked) [Example 12, [1-(3,4-Dichloro-benzyl)-7-(2-methanesulfonylamino-ethoxy)-1,2,3,4-tetrahydronaphthalen-2-yl]-carbamic acid ethyl ester] | ≤ 100 | ≥ 10 |  | 
12 | CS(=O)(=O)NCCOc1ccc2c(c1)C(Cc1ccc(Cl)c(Cl)c1)C(N)CC2 (centres unmarked) [Example 15, N-{2-[7-Amino-8-(3,4-dichloro-benzyl)-5,6,7,8-tetrahydro-naphthalen-2-yloxy]-ethyl}-methanesulfonamide hydrochloride] |  |  | ≤ 1 | ≤ 1
13 | CCOC(=O)NC1CCc2ccc(OCCNS(=O)(=O)c3cnn(CC)c3)cc2C1Cc1cccc(Cl)c1 (centres unmarked) [Example 61, {1-(3-Chloro-benzyl)-7-[2-(1-ethyl-1H-pyrazole-4-sulfonylamino)-ethoxy]-1,2,3,4-tetrahydro-naphthalen-2-yl}-carbamic acid ethyl ester] | ≤ 1000 | ≤ 10 |  | 
14 | CCOC(=O)NC1CCc2ccc(OCCNS(=O)(=O)c3cc(C)sc3C)cc2C1Cc1cccc(Cl)c1 (centres unmarked) [Example 60, {1-(3-Chloro-benzyl)-7-[2-(2,5-dimethyl-thiophene-3-sulfonylamino)-ethoxy]-1,2,3,4-tetrahydro-naphthalen-2-yl}-carbamic acid ethyl ester] | ≥ 100 | ≤ 10 |  | 
15 | CCCS(=O)(=O)NCCOc1ccc2c(c1)C(Cc1cccc(Cl)c1)C(N)CC2 (centres unmarked) [Example 55, Propane-1-sulfonic acid {2-[7-amino-8-(3-chloro-benzyl)-5,6,7,8-tetrahydro-naphthalen-2-yloxy]-ethyl}-amide hydrochloride] |  |  | ≤ 0.1 | ≤ 0.01
16 | CCCS(=O)(=O)N(C)Cc1ccc2c(c1)[C@H](Cc1ccccc1)[C@H](N)CC2 (relative stereo) [Example 45, N-{[cis-7-amino-8-benzyl-5,6,7,8-tetrahydronaphthalen-2-yl]methyl}-N-methylpropane-1-sulfonamide hydrochloride] | ≤ 0.1 | ≤ 0.1 |  | 
17 | Cn1cc(S(=O)(=O)NCCOc2ccc3c(c2)C(Cc2ccc(Cl)cc2)C(N)CC3)cn1 (centres unmarked) [Example 28, 1-Methyl-1H-pyrazole-4-sulfonic acid {2-[7-amino-8-(4-chloro-benzyl)-5,6,7,8-tetrahydronaphthalen-2-yloxy]-ethyl}-amide hydrochloride] | ≤ 0.01 | ≤ 0.01 |  | 
18 | Cc1ccc(S(=O)(=O)NCCOc2ccc3c(c2)C(Cc2cccc(Cl)c2)C(N)CC3)s1 (centres unmarked) [Example 68, 5-Methyl-thiophene-2-sulfonic acid {2-[7-amino-8-(3-chloro-benzyl)-5,6,7,8-tetrahydronaphthalen-2-yloxy]-ethyl}-amide hydrochloride] | ≤ 10 | ≤ 1 |  | 
19 | CCCS(=O)(=O)N(C)CCOc1ccc2c(c1)C(Cc1ccc(Cl)cc1)C(NC(=O)OCC)CC2 (centres unmarked) [Example 76, (1-(4-Chloro-benzyl)-7-{2-[methyl-(propane-1-sulfonyl)-amino]-ethoxy}-1,2,3,4-tetrahydronaphthalen-2-yl)-carbamic acid ethyl ester] | ≤ 1000 | ≤ 100 |  | 
20 | Cc1cc(S(=O)(=O)NCCOc2ccc3c(c2)C(Cc2cccc(Cl)c2)C(N)CC3)c(C)s1 (centres unmarked) [Example 69, 2,5-Dimethyl-thiophene-3-sulfonic acid {2-[7-amino-8-(3-chloro-benzyl)-5,6,7,8-tetrahydronaphthalen-2-yloxy]-ethyl}-amide hydrochloride] | ≤ 10 | ≤ 1 |  | 
21 | CCOC(=O)NC1CCc2ccc(OCCNS(=O)(=O)c3cc(C)cs3)cc2C1Cc1cccc(Cl)c1 (centres unmarked) [Example 54, {1-(3-Chloro-benzyl)-7-[2-(4-methyl-thiophene-2-sulfonylamino)-ethoxy]-1,2,3,4-tetrahydro-naphthalen-2-yl}-carbamic acid ethyl ester] | ≥ 100 | ≤ 10 |  | 
22 | CCOC(=O)NC1CCc2ccc(OCCNS(=O)(=O)CC)cc2C1Cc1cccc(Cl)c1 (centres unmarked) [Example 65, [1-(3-Chloro-benzyl)-7-(2-ethanesulfonylamino-ethoxy)-1,2,3,4-tetrahydro-naphthalen-2-yl]-carbamic acid ethyl ester] | ≤ 100 | ≥ 10 |  | 
23 | CCOC(=O)NC1CCc2ccc(OCCNS(=O)(=O)c3cc(C)cs3)cc2C1Cc1ccc(Cl)c(Cl)c1 (centres unmarked) [Example 21] | ≤ 1000 | ≤ 100 |  | 
24 | CCOC(=O)NC1CCc2ccc(OCCNS(=O)(=O)CCC(F)(F)F)cc2C1Cc1ccc(Cl)c(Cl)c1 (centres unmarked) [Example 26, {1-(3,4-Dichloro-benzyl)-7-[2-(3,3,3-trifluoro-propane-1-sulfonylamino)-ethoxy]-1,2,3,4-tetrahydro-naphthalen-2-yl}-carbamic acid ethyl ester] | ≤ 1000 | ≤ 10 |  | 
25 | CCCS(=O)(=O)N(C)CCOc1ccc2c(c1)C(Cc1cccc(Cl)c1)C(N)CC2 (centres unmarked) [Example 79, Propane-1-sulfonic acid {2-[7-amino-8-(3-chloro-benzyl)-5,6,7,8-tetrahydronaphthalen-2-yloxy]-ethyl}-methyl-amide hydrochloride] | ≤ 1 | ≤ 0.1 |  | 
26 | O=C(NC1CCc2ccc(O)cc2C1Cc1ccc(Cl)cc1)OCc1ccccc1 (centres unmarked) [Example 37, Benzyl [1-(4-chlorobenzyl)-7-hydroxy-1,2,3,4-tetrahydronaphthalen-2-yl]carbamate] | ≤ 100 | ≤ 10 |  | 
27 | Cc1csc(S(=O)(=O)NCCOc2ccc3c(c2)C(Cc2cccc(Cl)c2)C(N)CC3)c1 (centres unmarked) [Example 67, 4-Methyl-thiophene-2-sulfonic acid {2-[7-amino-8-(3-chloro-benzyl)-5,6,7,8-tetrahydronaphthalen-2-yloxy]-ethyl}-amide hydrochloride] | ≤ 1 | ≤ 0.1 |  | 
28 | CCCS(=O)(=O)NCc1ccc2c(c1)C(Cc1ccc(Cl)c(Cl)c1)C(NC(=O)OC(C)(C)C)CC2 (centres unmarked) [Example 39, tert-Butyl[1-(3,4-dichlorobenzyl)-7-{[(propylsulfonyl)amino]methyl}-1,2,3,4-tetrahydronaphthalen-2-yl]carbamate] | ≤ 1000 | ≤ 10 |  | 
